Results taken from PMC3080024 (Synapse (New York, N.Y.), 2010).
“And” between values parts separate entries of the source, which are not always exact repeats. Identical values can stand only once. Like-named read-outs stand apart in the source and are kept apart here. Blank lines part the entries; values can stand above or below the compound they belong to.

What was measured:
p-glycoprotein (Pgp) = conditions: cited from earlier work
5-HT1A receptor [1] = conditions: ref Saigal et al., 2006, cited from earlier work
[2] = Cerebellar kinetics by PET, single-tissue compartment model; conditions: for cerebellar clearance rate, slow component: exponential fit, t > 30 minutes
[3] = ref Pike et al., 2000; Saigal et al., 2006; cited from earlier work
[4] = Arterial plasma kinetics of parent radiotracer; conditions: for fraction of radioactivity in the plasma due to parent radiotracer: 30 minutes after injection; for clearance rate from the arterial plasma: after period of rapid clearance (>30 minutes), bolus injection
5-HT1A receptor [5] = biological target: T1, 5-HT1A receptor (Macaca mulatta, UniProt F7GIU0); type: in vivo, rhesus monkey
T1 sequence (F7GIU0 1-421): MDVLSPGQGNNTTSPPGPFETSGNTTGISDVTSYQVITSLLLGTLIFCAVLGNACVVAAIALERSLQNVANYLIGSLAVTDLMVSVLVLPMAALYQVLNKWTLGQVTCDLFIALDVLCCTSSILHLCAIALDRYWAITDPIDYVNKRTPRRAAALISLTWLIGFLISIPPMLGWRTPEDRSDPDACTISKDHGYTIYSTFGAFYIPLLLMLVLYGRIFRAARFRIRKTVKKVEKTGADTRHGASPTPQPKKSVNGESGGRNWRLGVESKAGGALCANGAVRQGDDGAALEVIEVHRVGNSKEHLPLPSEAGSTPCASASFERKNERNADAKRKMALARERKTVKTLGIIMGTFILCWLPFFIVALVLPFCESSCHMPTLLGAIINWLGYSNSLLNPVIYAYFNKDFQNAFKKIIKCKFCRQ

5-HT1A receptor sites = experiment: Estimated occupancy by unlabeled ligand mass in the PET studies; type: in vivo, rhesus monkey; conditions: for occupancy of the unlabeled drug: comparable ED50 assumed; for occupancy at the 5-HT1A receptor sites: estimated from rat ED50
[6] = rhesus monkey, previous measurements; ref Saigal et al., 2006; cited from earlier work

Structure (SMILES): COc1ccccc1N1CCN(CCN(C(=O)C2CCC(CF)CC2)c2ccccn2)CC1 (stereo not shown) [mefway]
Pgp substrate (p-glycoprotein (Pgp); no reference given): Neither mefway nor WAY100635 have been found to be Pgp substrates
IC50 (5-HT1A receptor [1]; against [F-18]mefway): 25.7 nM

DVND (nondisplaceable distribution volume, K1/k2) ([2]; cerebellum, mean over subjects): 2.62
DVND (nondisplaceable distribution volume, K1/k2) ([2]; cerebellum, subject M1): 2.55
DVND (nondisplaceable distribution volume, K1/k2) ([2]; cerebellum, subject M3): 2.62
DVND (nondisplaceable distribution volume, K1/k2) ([2]; cerebellum, subject M4): 2.70
cerebellar clearance rate, slow component [2]: 0.014 min⁻¹
K1 in the cerebellum ([2]; mean over subjects): 0.74 mL/min/mL
k2 in the cerebellum ([2]; mean over subjects): 0.28 min⁻¹
K1 in the cerebellum ([2]; subject M1): 0.51 mL/min/mL
k2 in the cerebellum ([2]; subject M1): 0.20 min⁻¹
K1 in the cerebellum ([2]; subject M3): 1.10 mL/min/mL
k2 in the cerebellum ([2]; subject M3): 0.42 min⁻¹
K1 in the cerebellum ([2]; subject M4): 0.62 mL/min/mL
k2 in the cerebellum ([2]; subject M4): 0.23 min⁻¹
fraction of radioactivity in the plasma due to parent radiotracer [4]: 29%
clearance rate from the arterial plasma [4]: 0.0069 min⁻¹
BPND (5-HT1A receptor [5]; ACG, mean over subjects): 7.9±1.2 and 7.92
BPND (5-HT1A receptor [5]; ACG, subject M1): 6.90
BPND (5-HT1A receptor [5]; ACG, subject M3): 7.64
BPND (5-HT1A receptor [5]; ACG, subject M4): 9.21
BPND (5-HT1A receptor [5]; IC, mean over subjects): 4.7±1.0 and 4.65
BPND (5-HT1A receptor [5]; IC, subject M1): 4.08
BPND (5-HT1A receptor [5]; IC, subject M3): 4.11
BPND (5-HT1A receptor [5]; IC, subject M4): 5.77
BPND (5-HT1A receptor [5]; MTC, mean over subjects): 7.0±1.2 and 7.00
BPND (5-HT1A receptor [5]; MTC, subject M1): 5.97
BPND (5-HT1A receptor [5]; MTC, subject M3): 8.37
BPND (5-HT1A receptor [5]; MTC, subject M4): 6.66
BPND (5-HT1A receptor [5]; RN, mean over subjects): 3.3±0.7 and 3.27
BPND (5-HT1A receptor [5]; RN, subject M1): 3.97
BPND (5-HT1A receptor [5]; RN, subject M3): 2.66
BPND (5-HT1A receptor [5]; RN, subject M4): 3.17
Structure (SMILES): COc1ccccc1N1CCN(CCN(C(=O)C2CCCCC2)c2ccccn2)CC1 [[C-11]WAY100635, [Carbonyl-C-11]N-(2-(1-(4-(2-Methoxyphenyl)-piperazinyl)ethyl)-N-pyridinyl) cyclohexanecarboxamide]
logP [3]: 3.28

Structure (SMILES): COc1ccccc1N1CCN(CCN(C(=O)c2ccc(F)cc2)c2ccccn2)CC1 [[F-18]MPPF, 4-Fluoro-N-[2-[4-(2-methoxyphenyl)piperazin-1-yl]ethyl]-N-pyridin-2-ylbenzamide]
Pgp substrate (p-glycoprotein (Pgp); ref Passchier et al., 2000): substrate for p-glycoprotein (Pgp)
occupancy of the unlabeled drug (5-HT1A receptor sites): less than 3%
cerebellar clearance rate, slow component [2]: 0.011 min⁻¹
K1 in the cerebellum ([2]; mean over subjects): 1.00 mL/min/mL
k2 in the cerebellum ([2]; mean over subjects): 0.34 min⁻¹
Kp ([2]; rhesus monkey, in vivo, DVND (nondisplaceable distribution volume, K1/k2), cerebellum, subject M4): 2.89
K1 in the cerebellum ([2]; subject M2): 0.90 mL/min/mL
k2 in the cerebellum ([2]; subject M2): 0.29 min⁻¹
K1 in the cerebellum ([2]; subject M3): 1.32 mL/min/mL
k2 in the cerebellum ([2]; subject M3): 0.45 min⁻¹
K1 in the cerebellum ([2]; subject M4): 0.78 mL/min/mL
k2 in the cerebellum ([2]; subject M4): 0.27 min⁻¹
fraction of radioactivity in the plasma due to parent radiotracer [4]: 28%
clearance rate from the arterial plasma [4]: 0.0078 min⁻¹
BPND (5-HT1A receptor [5]; ACG, mean over subjects): 2.1±0.2 and 2.12
BPND (5-HT1A receptor [5]; ACG, subject M1): 2.05
BPND (5-HT1A receptor [5]; ACG, subject M2): 2.19
BPND (5-HT1A receptor [5]; ACG, subject M3): 1.93
BPND (5-HT1A receptor [5]; ACG, subject M4): 2.30
time to plateau of target to CB ratio (pseudoequilibrium) (5-HT1A receptor [5]; IC (intermediate binding)): approximately 20 minutes
BPND (5-HT1A receptor [5]; IC, mean over subjects): 1.2±0.1 and 1.15
BPND (5-HT1A receptor [5]; IC, subject M1): 1.24
BPND (5-HT1A receptor [5]; IC, subject M2): 1.11
BPND (5-HT1A receptor [5]; IC, subject M3): 0.98
BPND (5-HT1A receptor [5]; IC, subject M4): 1.28
BPND (5-HT1A receptor [5]; MTC, mean over subjects): 3.1±0.4 and 3.14
BPND (5-HT1A receptor [5]; MTC, subject M1): 3.01
BPND (5-HT1A receptor [5]; MTC, subject M2): 3.67
BPND (5-HT1A receptor [5]; MTC, subject M3): 2.99
BPND (5-HT1A receptor [5]; MTC, subject M4): 2.88
BPND (5-HT1A receptor [5]; RN, mean over subjects): 1.3±0.3 and 1.34
BPND (5-HT1A receptor [5]; RN, subject M1): 1.49
BPND (5-HT1A receptor [5]; RN, subject M2): 1.71
BPND (5-HT1A receptor [5]; RN, subject M3): 0.98
BPND (5-HT1A receptor [5]; RN, subject M4): 1.18
time to plateau of target to CB ratio (pseudoequilibrium) (5-HT1A receptor [5]; high binding regions): approximately 30 minutes

Structure (SMILES): COc1ccccc1N1CCN(CCN(C(=O)C2CCC(C[18F])CC2)c2ccccn2)CC1 (stereo not shown) [[F-18]mefway, N-{2-[4-(2-methoxyphenyl)piperazinyl]ethyl}-N-(2-pyridyl)-N-(4-[F-18]-fluoromethylcyclohexane)carboxamide]
fraction of radiolabeled lipophilic metabolites [6]: < 10%
displacement of binding (5-HT1A receptor [1]; competition of 10 μM of WAY100635): almost completely displaced
occupancy of the unlabeled drug (5-HT1A receptor sites): less than 3%
DVND (nondisplaceable distribution volume, K1/k2) ([2]; cerebellum, mean over subjects): 4.02
DVND (nondisplaceable distribution volume, K1/k2) ([2]; cerebellum, subject M1): 4.92
DVND (nondisplaceable distribution volume, K1/k2) ([2]; cerebellum, subject M2): 3.53
DVND (nondisplaceable distribution volume, K1/k2) ([2]; cerebellum, subject M3): 4.22
DVND (nondisplaceable distribution volume, K1/k2) ([2]; cerebellum, subject M4): 3.41
cerebellar clearance rate, slow component [2]: 0.010 min⁻¹
K1 in the cerebellum ([2]; mean over subjects): 1.02 mL/min/mL
k2 in the cerebellum ([2]; mean over subjects): 0.27 min⁻¹
K1 in the cerebellum ([2]; subject M1): 0.59 mL/min/mL
k2 in the cerebellum ([2]; subject M1): 0.12 min⁻¹
K1 in the cerebellum ([2]; subject M2): 1.34 mL/min/mL
k2 in the cerebellum ([2]; subject M2): 0.38 min⁻¹
K1 in the cerebellum ([2]; subject M3): 1.14 mL/min/mL
k2 in the cerebellum ([2]; subject M3): 0.27 min⁻¹
K1 in the cerebellum ([2]; subject M4): 0.99 mL/min/mL
k2 in the cerebellum ([2]; subject M4): 0.29 min⁻¹
logP [3]: 2.62
fraction of radioactivity in the plasma due to parent radiotracer [4]: 19%
clearance rate from the arterial plasma [4]: 0.0031 min⁻¹
BPND (5-HT1A receptor [5]; ACG, mean over subjects): 7.2±1.2
BPND (5-HT1A receptor [5]; ACG, mean over subjects, listed as [F-18]MEFWAY): 7.15
BPND (5-HT1A receptor [5]; ACG, subject M1): 6.92
BPND (5-HT1A receptor [5]; ACG, subject M2): 7.00
BPND (5-HT1A receptor [5]; ACG, subject M3): 5.87
BPND (5-HT1A receptor [5]; ACG, subject M4): 8.82
BPND (5-HT1A receptor [5]; IC, mean over subjects): 4.2±0.6
BPND (5-HT1A receptor [5]; IC, mean over subjects, listed as [F-18]MEFWAY): 4.16
BPND (5-HT1A receptor [5]; IC, subject M1): 4.51
BPND (5-HT1A receptor [5]; IC, subject M2): 3.57
BPND (5-HT1A receptor [5]; IC, subject M3): 3.72
BPND (5-HT1A receptor [5]; IC, subject M4): 4.83
BPND (5-HT1A receptor [5]; MTC, mean over subjects): 7.4±0.6
BPND (5-HT1A receptor [5]; MTC, mean over subjects, listed as [F-18]MEFWAY): 7.36
BPND (5-HT1A receptor [5]; MTC, subject M1): 7.23
BPND (5-HT1A receptor [5]; MTC, subject M2): 8.25
BPND (5-HT1A receptor [5]; MTC, subject M3): 7.17
BPND (5-HT1A receptor [5]; MTC, subject M4): 6.77
plateau of target to CB ratio (5-HT1A receptor [5]; MTC, total time of acquisition): a plateau is not reached within the total time of acquisition
BPND (5-HT1A receptor [5]; RN, mean over subjects): 3.7±0.6
BPND (5-HT1A receptor [5]; RN, mean over subjects, listed as [F-18]MEFWAY): 3.69
BPND (5-HT1A receptor [5]; RN, subject M1): 4.06
BPND (5-HT1A receptor [5]; RN, subject M2): 4.00
BPND (5-HT1A receptor [5]; RN, subject M3): 2.85
BPND (5-HT1A receptor [5]; RN, subject M4): 3.84
time to plateau of target to CB ratio (5-HT1A receptor [5]; high uptake regions, 2 hour scanning period): > 2 h

occupancy at the 5-HT1A receptor sites (5-HT1A receptor sites; M1, injected mass 1.0 nmol/kg): 18%
occupancy at the 5-HT1A receptor sites (5-HT1A receptor sites; M4, injected mass 0.7 nmol/kg): 13%
Structure (SMILES): COc1ccccc1N1CCN(CCN(C(=O)C2CCCCC2)c2ccccn2)CC1 [WAY100635]
Pgp substrate (p-glycoprotein (Pgp); not told): Neither mefway nor WAY100635 have been found to be Pgp substrates
